Assay results from patent publication US7795255B2, “Rigidified compounds for modulating heparanase activity” (InSight Biopharmaceuticals Ltd., priority 2005, dated 2010).

Experiments:
[1] = molecular target: T1, recombinant human pro-heparanase (H60) (Homo sapiens, UniProt Q9Y251); experiment: Pro-heparanase (H60) activation in a cell-based assay; settings: inhibition of pro-heparanase activation in CHO cells; NI = no inhibition
T1 construct: Heparanase maturation involves the removal of the signal peptide, transforming the 65 kDa pre-pro-heparanase into a 60 kDa pro-heparanase; made in house
T1 sequence (Q9Y251 36-543): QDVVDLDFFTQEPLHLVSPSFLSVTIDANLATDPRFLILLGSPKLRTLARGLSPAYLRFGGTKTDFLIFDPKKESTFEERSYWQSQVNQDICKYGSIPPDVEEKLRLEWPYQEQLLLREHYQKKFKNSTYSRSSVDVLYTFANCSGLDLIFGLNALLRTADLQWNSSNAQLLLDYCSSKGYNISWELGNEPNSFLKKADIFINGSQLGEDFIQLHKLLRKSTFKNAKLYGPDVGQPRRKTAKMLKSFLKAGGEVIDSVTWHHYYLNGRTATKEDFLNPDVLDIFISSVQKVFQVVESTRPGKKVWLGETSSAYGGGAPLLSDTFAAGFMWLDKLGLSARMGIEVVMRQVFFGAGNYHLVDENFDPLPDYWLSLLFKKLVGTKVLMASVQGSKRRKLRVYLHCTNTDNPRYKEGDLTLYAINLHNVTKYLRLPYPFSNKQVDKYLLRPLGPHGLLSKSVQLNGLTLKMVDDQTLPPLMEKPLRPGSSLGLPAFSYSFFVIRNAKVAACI
Method: Pro-heparanase (H60) activation in a cell-based assay: Chinese hamster ovary (CHO) cells were grown in complete F12 medium supplemented with 10% fetal calf serum (FCS). […] The plates were incubated for 24 hours in a 37° C. humidified incubator with 5% CO2. […] The plates were further incubated for additional 4 hours. The pro-heparanase was allowed to internalize by the cells and further processed to generate the active 53 kDa heparanase. At the end of the incubation, the cells were lysed by three consecutive cycles of freezing and thawing in a −80° C. freezer and a 37° C. shaker.
The rigidified compounds described herein were tested for inhibition of pro-heparanase activation in the cell-based assay described above.

heparanase (H53) = molecular target: T2, heparanase (H53) (Homo sapiens, UniProt Q9Y251); experiment: Heparanase (H53) assay (DMB assay); assay type: biochemical; settings: for dual activity: inhibition of pro-heparanase activation (H60) and of heparanase activity (H53): compounds with an acidic group; for IC50: inhibition of heparanase activity, DMB assay, NI = no inhibition
T2 construct: The 45 kDa major subunit and the 8 kDa small subunit hetero-complex to form the 53 kDa active form of heparanase
T2 sequence (Q9Y251 36-109 limits assumed): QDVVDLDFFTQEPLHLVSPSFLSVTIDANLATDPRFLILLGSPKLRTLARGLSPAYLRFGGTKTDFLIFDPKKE
T2 sequence (Q9Y251 158-543 limits assumed): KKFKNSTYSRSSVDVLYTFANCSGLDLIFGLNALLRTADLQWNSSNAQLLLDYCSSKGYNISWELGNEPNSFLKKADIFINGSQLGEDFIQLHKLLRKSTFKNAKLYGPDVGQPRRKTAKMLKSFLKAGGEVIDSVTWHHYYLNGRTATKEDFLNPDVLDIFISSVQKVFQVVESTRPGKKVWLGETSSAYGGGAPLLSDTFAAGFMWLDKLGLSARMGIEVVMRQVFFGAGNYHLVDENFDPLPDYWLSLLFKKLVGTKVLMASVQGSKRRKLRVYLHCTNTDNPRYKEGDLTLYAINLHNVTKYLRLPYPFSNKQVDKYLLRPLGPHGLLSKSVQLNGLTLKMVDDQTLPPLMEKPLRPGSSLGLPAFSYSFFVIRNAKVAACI
Method: Heparanase (H53) assay: The rigidified compounds described herein were tested for inhibition of heparanase activity in the DMB assay described in U.S. Pat. No. 6,190,875. IC50 was calculated from inhibition curves of all active compounds.

[2] = molecular target: T3, vascular endothelial growth factor (VEGF) (Homo sapiens, UniProt P15692); experiment: ELISA for determination of binding of VEGF to heparin; settings: for IC50: inhibition of VEGF binding to heparin, NI = no inhibition; for inhibition of VEGF binding to heparin: inhibition towards both growth factors
T3 sequence (P15692 27-191 isoform P15692-4): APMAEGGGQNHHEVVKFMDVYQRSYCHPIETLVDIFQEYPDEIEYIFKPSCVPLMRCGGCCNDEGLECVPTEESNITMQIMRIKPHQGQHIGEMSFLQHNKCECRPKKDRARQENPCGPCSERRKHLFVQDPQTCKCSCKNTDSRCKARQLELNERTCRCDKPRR
Method: Enzyme-linked immunosorbent assay (ELISA) for determination of binding of vascular endothelial growth factor (VEGF) to heparin: 96-well microplates were coated for 2 hours. at 23-25° C. with 5 μg/ml heparin-albumin (Rimon Biotech) and blocked with 1% bovine serum albumin (BSA) in phosphate buffer (PBS) with 0.05% Tween and 0.01% thimerosal for 2 hours. VEGF was added to the plates at a concentration of 10 ng/ml and the plates were thereafter incubated for 45 minutes at 23-25° C. The amount of VEGF bound to heparin was detected using anti-VEGF monoclonal antibody (Sigma Cat. No. V4758) at a concentration of 0.26 μg/ml and secondary antibodies Sheep anti-mouse IgG linked to horseradish peroxidase (1:2000) using 3,3′,5,5′-tetramethylbenzidine (TMB, Pierce Cat. No. 34021) as a substrate for peroxidase. The plates were read at 450 nm with a reference wavelength of 630 nm using a VERSAmax plate reader. […] Percent inhibition was calculated as compared with a control pre-incubated with a solution of 1% DMSO and the results are presented in Table 3 below.

β-FGF = β-FGF (Homo sapiens, UniProt P09038); experiment: ELISA for determination of binding of β-FGF to heparin; settings: for IC50: inhibition of β-FGF binding to heparin, NI = no inhibition; for inhibition of β-FGF binding to heparin: inhibition towards both growth factors
β-FGF, sequence (P09038 143-288): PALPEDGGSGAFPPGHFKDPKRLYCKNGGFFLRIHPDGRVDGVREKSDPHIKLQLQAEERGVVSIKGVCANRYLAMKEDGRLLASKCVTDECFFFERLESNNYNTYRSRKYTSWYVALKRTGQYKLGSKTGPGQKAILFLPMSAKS
Method: ELISA for determination of binding of β-FGF to heparin: 96-well microplates were coated for 2 hours at 23-25° C. with 5 μg/ml heparin-albumin (Rimon Biotech) and blocked with 1% BSA in PBS, with 0.05% Tween, and 0.01% thimerosal for 2 hours. β-FGF was added to the plates at a concentration of 10 ng/ml and plates were incubated for 45 minutes at 23-25° C. The amount of β-FGF bound to heparin was detected using anti-FGF monoclonal antibody (Sigma Cat. No. F6162) at a concentration of 2.5 ng/ml and secondary antibodies Sheep anti-mouse IgG linked to horseradish peroxidase (1:3000) TMB (Pierce Cat. No. 34021) was used as a substrate for peroxidase. The plates were read at 450 nm with a reference wavelength of 630 nm using a VERSAmax plate reader.

[3] = tested on: MDA-MB231 breast cancer cells; experiment: In-vitro assay for inhibition of cell invasion (MDA-MB231); assay type: cell-based; settings: Homo sapiens; MB231 cells (first value of cell); read-out: IC50 Invasion MB231/PC3/A375
Method: (§1) In-vitro assay for inhibition of cell invasion: The ability of the rigidified compounds described herein to inhibit cell invasion was determined quantitatively using BD Biocoat FluoroBlok Invasion System (BD, cat No. FAL354165). MDA-MB231 breast cancer cells, human prostatic cancer PC3 cells and A375 melanoma cells were used for this assay. Cells (5×10^4 cells/ml) were pre-incubated with the compounds for 48 hours prior to the assay, at 37° C. and a 5% CO2 atmosphere.
(§2) Serial dilutions of each compound starting from a concentration which was previously found to be non-toxic to the cells (using Oxygen Biosensor System, BD), were prepared in DMSO and added to the cells to a final concentration of 1% DMSO. At the end of the pre-incubation, cells at each compound concentration were counted and 2×10^4 cells/well in basic medium were applied onto the top chamber of the insert of the Invasion system. 750 μl complete medium with 5% fetal calf serum was added to the bottom chambers. The tested compound was applied to the top and bottom chambers. Invasion plates were incubated for 22 hours at 37° C. and a 5% CO2 atmosphere.
At the end of the incubation, medium was aspirated from the upper chambers and the inserts were transferred to a plate containing Calcein AM (Molecular Probes), 4 μg/ml and incubated for 90 minutes at 37° C. and a 5% CO2 atmosphere.
(§3) Fluorescence of invaded cells was read in a fluorescence plate reader BMG POLARstar Galaxy, BMG at excitation/emission wavelength of 485/530 nm.

[4] = tested on: human prostatic cancer PC3 cells; experiment: In-vitro assay for inhibition of cell invasion (PC3); assay type: cell-based; settings: PC-3, PC3 cells (second value of cell), read-out: IC50 Invasion MB231/PC3/A375
Method: as §1
as §2, with “atmosphere. […]” for “atmosphere.”
as §3

A375 melanoma cells = experiment: In-vitro assay for inhibition of cell invasion (A375); assay type: cell-based; settings: Homo sapiens, A-375; A375 cells (third value of cell); read-out: IC50 Invasion MB231/PC3/A375
Method: as §1
as §2, with “atmosphere. […]” for “atmosphere.”
as §3

Compound | IC50 [1] [µM] | dual activity: inhibition of pro-heparanase activation (H60) and of heparanase activity (H53) (heparanase (H53)) | IC50 (heparanase (H53)) [µM] | IC50 [2] [µM] | IC50 (β-FGF) [µM] | IC50 [3] [µM] | inhibition of VEGF binding to heparin [2] | inhibition of β-FGF binding to heparin (β-FGF) | IC50 [4] [µM] | IC50 (A375 melanoma cells) [µM]
O=C(O)CCCN1C(=O)c2cc3oc(-c4ccc([N+](=O)[O-])cc4)cc3n2C1=S [Compound 2, 4-[2-(4-nitro-phenyl)-6-oxo-4-thioxo-6H-1-oxa-3b,5-diaza-cyclopenta[a]pentalen-5-yl]-butyric acid] | 1 | dual activity | 9 | 1.8 | 1.7 | 2.6 | – | – | – | –
CCN(CC)C(=O)CCCN1C(=O)c2cc3oc(-c4ccc(Cl)cc4)cc3n2C1=S [Compound 6, 4-[2-(4-chloro-phenyl)-6-oxo-4-thioxo-6H-1-oxa-3b,5-diaza-cyclopenta[a]pentalen-5-yl]-N,N-diethyl-butyramide] | 1.2 | – | – | 0.16 | 0.15 | 0.17 | sub-micromolar | sub-micromolar | – | –
CC(C)(CC(=O)O)CN1C(=O)c2cc3oc(-c4ccc(Cl)cc4)cc3n2C1=S [Compound 11, 4-[2-(4-chloro-phenyl)-6-oxo-4-thioxo-6H-1-oxa-3b,5-diaza-cyclopenta[a]pentalen-5-yl]-3,3-dimethyl-butyric acid] | 0.27 | dual activity | 37 | 1.2 | 1.8 | 0.75 | – | – | 1.4 | –
CN1CCN(C(=O)CC(C)(C)CN2C(=O)c3cc4oc(-c5ccc(Cl)cc5)cc4n3C2=S)CC1 [Compound 16, 2-(4-Chloro-phenyl)-5-[2,2-dimethyl-4-(4-methyl-piperazin-1-yl)-4-oxo-butyl]-4-thioxo-4,5-dihydro-1-oxa-3b,5-diaza-cyclopenta[a]pentalen-6-one] | 0.09 | – | – | 0.29 | 0.2 | 0.035 | sub-micromolar | sub-micromolar | – | –
CC(C)(CC(=O)N1CCC[C@H]1C(=O)O)CN1C(=O)c2cc3oc(-c4ccc(Cl)cc4)cc3n2C1=S [Compound 22, 1-{4-[2-(4-Chloro-phenyl)-6-oxo-4-thioxo-6H-1-oxa-3b,5-diaza-cyclopenta[a]pentalen-5-yl]-3,3-dimethyl-butyryl}-pyrrolidine-2-carboxylic acid] | 0.23 | dual activity | 34.8 | 2.4 | 2.8 | 0.022 | – | – | 0.05 | 2
